Laboratory results published in patent US20040009905A1 (B.M.R.A. Corporation B.V., priority 1998, published 2004).
Entries after “also recorded” stand apart in the source; their conditions may differ. Like-named read-outs stand apart in the source and are kept apart here. The star is where a group is joined. aminooxyacetyl = NOCC(=O)*

Assays:
domestic pigs [1] = conditions: pig, in vivo
Description: Experiments were performed on 16 domestic pigs of both sexes (body weight 20-30 kg). The animals were premedicated with atropine (0.05 mg/kg) and ketamine (Ketalar, ParkeDavis, USA, 20 mg/kg i.m.) and anaesthetized with thiopentone (5 mg/kg i.v.). A tracheostomy was performed and artificial ventilation was started using a volume regulated ventilator (type Siemens 900). During surgery, continuous i.v. infusion of Ringer's solution, thiopentone (15 mg/kg/h) and pancuronium bromide (0.25 mg/kg/h) was performed. […]
2. […] Airway pressure was measured from a catheter positioned at the tip of the endotracheal tube. Transpulmonary pressure was determined by a differential pressure transducer (Hewlett-Packard 267B) taking the difference between tracheal and oesophagus pressure. Tidal volume was determined by integration of the respiratory flow signal measured with a pneumotachograph (Gould Godard, model 17212) by means of a heated Fleisch flow transducer #2 connected to the endotracheal tube. Transpulmonary pressure, tidal volume and flow were continuously recorded on a 4-channel recorder (Hewlett-Packard, 7754 GB). Total airflow resistance across the lungs (raw) was determined by dividing the difference in transpulmonary pressure by inspiratory plus expiratory flow at mid-tidal volume. […]

domestic pigs [2] = conditions: pig, in vivo; remark: listed apart in the source
Description: Experiments were performed on 16 domestic pigs of both sexes (body weight 20-30 kg). The animals were premedicated with atropine (0.05 mg/kg) and ketamine (Ketalar, ParkeDavis, USA, 20 mg/kg i.m.) and anaesthetized with thiopentone (5 mg/kg i.v.). A tracheostomy was performed and artificial ventilation was started using a volume regulated ventilator (type Siemens 900). During surgery, continuous i.v. infusion of Ringer's solution, thiopentone (15 mg/kg/h) and pancuronium bromide (0.25 mg/kg/h) was performed.
Catheters were placed in the femoral artery for systemic blood pressure and heart rate monitoring and in the femoral vein for thiopentone and fluid administration (300 ml/h). […] Nasal arterial blood flow was monitored with a Transonic flow probe (RB 143) placed around the sphenopalatine artery and connected to a T 202 ultrasonic blood flowmeter (Transonic System Inc., Ithaca, N.Y., USA).
Heart rate and systemic arterial blood pressure using the femoral artery catheter connected to a pressure transducer.
Sphenopalatine arterial blood flow using an Ultrasonic flow meter probe (see above).

NPY Y2 receptor = molecular target: T1, NPY Y2 receptor (Homo sapiens, UniProt P49146); test: Y2 radioreceptor binding assay (125I-NPY displacement, LN319 cells); conditions: FIG. 7
T1 construct: endogenous in cells; host or cells: LN319 (human glioblastoma)
T1 sequence (P49146 1-381): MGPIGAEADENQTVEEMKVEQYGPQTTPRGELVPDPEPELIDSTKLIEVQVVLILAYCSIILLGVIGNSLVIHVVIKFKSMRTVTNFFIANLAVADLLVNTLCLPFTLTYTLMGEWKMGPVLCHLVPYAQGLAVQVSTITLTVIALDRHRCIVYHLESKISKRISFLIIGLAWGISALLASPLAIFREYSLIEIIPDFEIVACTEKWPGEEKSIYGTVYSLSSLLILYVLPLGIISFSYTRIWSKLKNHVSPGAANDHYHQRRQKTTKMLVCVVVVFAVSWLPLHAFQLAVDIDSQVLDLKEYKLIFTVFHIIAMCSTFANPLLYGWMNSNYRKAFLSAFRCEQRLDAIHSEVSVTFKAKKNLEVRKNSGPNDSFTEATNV
Description: Tissue culture media were purchased from Life Technologies (Basel, Switzerland) and fetal calf serum was obtained from Seromed (Berlin, Germany). 70% confluent cells were washed with PBS and harvested using 0.15% Trypsin containing 0.4 mM EDTA. Cells were further diluted 1/3 and plated onto either 60 mm cell culture dishes (Nunc, Denmark) or 12-mm glass coverslips (Huber and Co, AG, Reinach, Switzerland). Media were changed every 3 days. A human glioblastoma cell line, LN319, was used for Y2 binding studies (Greber, et al., Br. J. Pharmacol. 113:737-740 (1994)). Prior to performing binding assays, adhered LN319 cells were washed extensively with phosphate buffered saline. […] After centrifugation at 600 g for 15 minutes at a temperature of 4° C., the pellet was resuspended in the harvesting buffer. […] Incubation proceeded at room temperature for 45 minutes. Bound radioactivity was determined after separating the unbound fraction by centrifugation.

[3] = Circular dichroism spectroscopy of conformational properties; assay type: physicochemical; conditions: in TFE, 295K
Description: The conformational properties of TASP-V were studied in solution mainly by circular dichroism (CD) spectroscopy under various experimental conditions. In order to detect effects of template attachment on secondary and tertiary structure formation, the corresponding single (not template attached) peptide IV was also studied.
CD spectra were recorded on a Jobin Yvon Dichrograph Mark VI calibrated with D(+)-10-camphorsulfonic acid. All measurements were performed at 295K using quartz cells with a path length of 0.1 cm and each spectrum was the average of three repeated scans between 185 nm to 250 nm, with an integration time of Is for 0.8 nm steps. The spectra were corrected by substraction of the background solvent spectrum obtained under identical experimental conditions and smoothed for clarity of display. CD intensities are expressed as mean residue ellipticities (deg cm2 dmol-1), calculated by dividing the total molar ellipticities by the number of amino acids in the peptide.

In the case of `CC[C@H](C)[C@H](NC(=O)[C@H](Cc1ccc(O)cc1)NC(=O)[C@H](Cc1c[nH]cn1)NC(=O)[C@H](CCCNC(=N)N)NC(=O)[C@H](CC(C)C)NC(=O)[C@H](C)NC(=O)[C@H](CO)NC(=O)[C@H](Cc1ccc(O)cc1)NC(=O)CNC(=O)CON=CC(=O)NCCCC[C@@H]1NC(=O)CNC(=O)[C@H](CCCCNC(=O)C=NOCC(=O)NCC(=O)N[C@@H](Cc2ccc(O)cc2)C(=O)N[C@@H](CO)C(=O)N[C@@H](C)C(=O)N[C@@H](CC(C)C)C(=O)N[C@@H](CCCNC(=N)N)C(=O)N[C@@H](Cc2c[nH]cn2)C(=O)N[C@@H](Cc2ccc(O)cc2)C(=O)N[C@H](C(=O)N[C@@H](CC(N)=O)C(=O)N[C@@H](CC(C)C)C(=O)N[C@H](C(=O)N[C@H](C(=O)N[C@@H](CCCNC(=N)N)C(=O)N[C@@H](CCC(N)=O)C(=O)N[C@@H](CCCNC(=N)N)C(=O)N[C@@H](Cc2ccc(O)cc2)C(N)=O)[C@@H](C)O)[C@@H](C)CC)[C@@H](C)CC)NC(=O)c2ccc3cccc(c3c2)CNC1=O)C(=O)N[C@@H](CC(N)=O)C(=O)N[C@@H](CC(C)C)C(=O)N[C@H](C(=O)N[C@H](C(=O)N[C@@H](CCCNC(=N)N)C(=O)N[C@@H](CCC(N)=O)C(=O)N[C@@H](CCCNC(=N)N)C(=O)N[C@@H](Cc1ccc(O)cc1)C(N)=O)[C@@H](C)O)[C@@H](C)CC` [TASP-V], the “Change in heart rate or mean arterial blood pressure” value (domestic pigs [1]) was “did not induce any change” and the “Change in heart rate or mean arterial blood pressure” value (domestic pigs [2]) was “did not induce any change”.

For “Leu31, Pro34 NPY: Leu31- and Pro34-substituted NPY, shown to be a Y1 agonist”, the “Affinity / binding to the Y2 receptor (in words)” value (NPY Y2 receptor) was “poor affinity binding; also recorded: bound poorly”.

With “IV: single, not template attached aminooxyacetyl NPY21-36 amide peptide (IV in FIG. 5) (aminooxyacetyl-YSALRHYINLITRQRY-NH2; SMILES CC[C@H](C)[C@H](NC(=O)[C@H](Cc1ccc(O)cc1)NC(=O)[C@H](Cc1c[nH]cn1)NC(=O)[C@H](CCCNC(=N)N)NC(=O)[C@H](CC(C)C)NC(=O)[C@H](C)NC(=O)[C@H](CO)NC(=O)[C@H](Cc1ccc(O)cc1)NC(=O)CON)C(=O)N[C@@H](CC(N)=O)C(=O)N[C@@H](CC(C)C)C(=O)N[C@H](C(=O)N[C@H](C(=O)N[C@@H](CCCNC(=N)N)C(=O)N[C@@H](CCC(N)=O)C(=O)N[C@@H](CCCNC(=N)N)C(=O)N[C@@H](Cc1ccc(O)cc1)C(N)=O)[C@@H](C)O)[C@@H](C)CC; UniProt P01303 49-64, looked up, fragment)” the “Helicity / secondary structure content by CD” value [3] was less than 30%.
